In one assay the target is acidic FGF (aFGF) (Homo sapiens, UniProt P05230). Description: biochemical. To be noted: for Approx. Molar Ratio (ligand to aFGF at 50% inhibition of aggregation): Table 1; for stabilization of aFGF against heat-induced aggregation: 0.5X and 10X ligand, FIGS. 6-8. The source says: Stabilization of aFGF can be determined by several independent methods including turbidity measurements, spectroscopic techniques, maintenance of protein mass, mitogenic activity and copper catalyzed oxidation. Since acidic fibroblast growth factor is unstable at physiological temperatures (undergoing large structural changes, including aggregation, which results in a loss of mitogenic and wound healing activity), human aFGF stability can be monitored by evaluating the turbidity of the pharmaceutical composition by following the kinetics of temperature induced aggregation of unfolded protein.
acidic FGF (aFGF), sequence (P05230 16-155 limits assumed): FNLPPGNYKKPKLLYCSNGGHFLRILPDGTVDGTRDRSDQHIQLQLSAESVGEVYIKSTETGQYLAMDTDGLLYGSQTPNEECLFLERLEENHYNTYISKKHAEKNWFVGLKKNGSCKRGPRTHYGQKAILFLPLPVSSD
The kinetics of protein aggregation (stabilization) are monitored by the degree of light scattering at about OD350 nm using a Perkin Elmer Lambda 6 UV-visible spectrophotometer equipped with a six-cuvette holder. Temperature is controlled by circulating a water/ethylene glycol solution through the cell holder. About 0.9 ml of a PBS solution (6 mM sodium phosphate, 120 mM NaCl, pH 7.2) was placed into a cuvette and incubated at the appropriate temperature within the spectrophotometer. Once equilibrated, 100 μl of a 1 mg/ml aFGF solution containing the appropriate amount of ligand (stabilizer) is added to the cuvette and mixed manually by inversion. The change in optical density at 350 nm over time is continuously monitored. A dead time of 30s was present due to the mixing of the six samples in each experiment.
To examine the interactions between aFGF and heparin, a spectrophotometric turbidity assay was developed. This technique monitors the structural stability of aFGF by following the kinetics of temperature induced aggregation of unfolded protein by measurement of the degree of light scattering (turbidity) at 350 nm. The kinetics of protein aggregation were monitored by the degree of light scattering at 350 nm using a Perkin Elmer Lambda 6 UV-visible spectrophotometer equipped with a six-cuvette holder. Temperature was controlled by circulating a water/ethylene glycol solution through the cell holder. A PBS solution, 0.9 ml, (6 mM phosphate, 120 mM NaCl pH 7.2) was placed into a cuvette and incubated at the appropriate temperature within the spectrophotometer. Once equilibrated, 100 μl of a 1 mg/ml aFGF solution containing the appropriate amount of ligand was added to the cuvette and mixed manually by inversion. The change in optical density at 350 nm over time was continuously monitored. A dead time of 30s was present due to the mixing of the six samples in each experiment.
Samples contained 100 μg/ml aFGF in a PBS buffer at pH 7.2 with the indicated ratio of heparin to aFGF (wt:wt).
Samples contained 100 μg/ml protein in a PBS buffer, pH 7.2 with (a) no heparin, (b) 1.5 μg/ml, (c) 3 μg/ml, (d) 5 μg/ml, (e) 10 μg/ml and (f) 50 μg/ml heparin. Only representative data points are shown for clarity. […] Using the initial linear portion of the slope of turbidity vs. time plots as a measure of the rate of aggregation, the effect of polyanion concentration can be quantitatively characterized. The Y-axis represents the maximum rate of turbidity formation (ΔOD350 nm/min) normalized to sample (a) containing no heparin. The curve is drawn through data points for clarity only. The IC50 is the concentration of ligand at which the rate of aggregation is 50% of the control sample.

The next assay concerns the target T1, aFGF (Homo sapiens, UniProt P05230).
T1 construct: The recombinant derived, 140 amino add form is the preferred form of aFGF; N-terminal methionine (MetHaFGF); made in house; host or cells: microbial cells (preferred embodiment)
In words: Copper-catalyzed oxidation of aFGF thiol groups. The class given is biochemical. The settings on record: for Cu Oxidation (% SH Lost in 10 Mins): ligand 3X by weight, sodium sulfate 120 mM, tetrapolyphosphate 10 mM. The method, then:
Copper-catalyzed oxidation of aFGF is carried out in the following manner. Acidic FGF (about 80 μg/ml) is incubated in a 20 mM Tris, 0.15M potassium chloride, pH 8 solution containing about 20 μM cuptic chloride for varying periods of time at room temperature. The reaction was terminated by the addition of 100 mM EDTA in the same buffer. A solution of about 0.7 ml of 0.25M Tris (about pH 8) containing about 2 mM EDTA and about 7 M GuHC1 is then added followed by about 35 μl of 4 mg/ml of DTNB (Sigma). Samples were incubated for 30 minutes, filtered through a 0.22 micron filter and the optical density measured at about 412 nm to determine sulfhydryl content, Riddles et al., Meth. Enzymol. 9:49-60 (1983). Relative standard deviation of the obtained values during time course experiments is 12%.
Acidic FGF contains three free cysteine residues at positions […], 83 and 117 in the polypeptide chain. […] It has also been shown that the copper catalyzed oxidative formation of a disulfide bond in the wild-type aFGF inactivates the protein in an in vitro mitogenic assay, Ortega et al., J. Biol. Chem. 266:5842-5846 (1991). Therefore, it was of interest to determine the extent to which heparin can stabilize aFGF against inactivation by oxidation. […] Samples contained 80 μg/ml aFGF with (a) 3X heparin by weight, (b) 0.1X heparin by weight and (c) buffer alone. As heparin was introduced and its concentration increased, the rate of copper-catalyzed oxidation decreased. For example, after 20 minutes, greater than 95% of the cysteine residues of aFGF are protected from oxidation with 3X heparin. FIG. 4B illustrates the fraction of remaining reactive thiol groups after a 10-minute incubation with cupric chloride as a function of heparin concentration.
Some aggregation of aFGF occurs under the conditions of these experiments presumably due to at least partial intermolecular disulfide formation. Thus, these measurements could simply be a measurement of the loss of solubility induced by copper association with aFGF. Several experiments, however, argue against this possibility. First, previous work has shown that at dilute protein concentration, copper does indeed catalyze oxidation of thiol groups of aFGF, Ortega et al., J. Biol. Chem. 266:5842-5846 (199 1 ). Second, as a control experiment, the copper-catalyzed oxidation of aFGF was carded out in a buffer containing 6 M GuHCl. Under these denaturing conditions, nearly 100% of the thiol groups in solution were lost after 10 minutes without visible aggregation. […] Regardless of the precise mechanism, copper addition is a distinct mechanism of inactivation compared to thermal stress.
Similar protection against oxidation experiments were carried out with other negatively charged compounds with an excess of ligand (3X by weight except for sodium sulfate at 120 mM and tetrapolyphosphate at 10 mM) added to aFGF before copper catalyzed oxidation. As shown in the second column of Table 2, all of these agents at least partially protect the cysteine residues of aFGF from oxidation.
^(b) Percentage of aFGF thiols remaining in solution after 10 min
incubation with cupric chloride. Experimental conditions are described in
FIG. 10. All samples contained ligand at 3× (by weight) except
sodium sulfate (120 mM) and tetrapolyphosphate (10 mM).

The mark [1] stands for this setting: 40° C., 100 μg/ml aFGF, PBS pH 7.2.

T1 sequence (P05230 16-155 limits assumed): as above

Consider `O=P(O)(O)OP(=O)(O)OP(=O)(O)OP(=O)(O)O` [Tetrapolyphosphate], for which, at acidic FGF (aFGF) (40° C.), the “number of ligand molecules per aFGF (molar ratio) required for stabilization” value is “only one or a few ligands per aFGF molecule” and the “Approx. Molar Ratio (ligand to aFGF at 50% inhibition of aggregation)” value is 1.2. For the same compound, the “IC50: concentration of ligand at which the rate of heat-induced aggregation of aFGF is 50% of the sample without ligand” value against acidic FGF (aFGF) (setting [1]) is 3 µg/mL. Moreover, at aFGF, the “Cu Oxidation (% SH Lost in 10 Mins)” value is on record as under 3%.
Take heparin [reference compound]: on acidic FGF (aFGF) (40° C.), the “number of ligand molecules per aFGF (molar ratio) required for stabilization” value is on record as “substantially below one” and the “Approx. Molar Ratio (ligand to aFGF at 50% inhibition of aggregation)” value amounted to 0.03. Besides, at acidic FGF (aFGF) (40° C., 100 μg/ml aFGF (1:10 weight ratio of heparin to aFGF)), the “heparin concentration down to which no detectable aggregation of aFGF was observed” value is “approximately 10 μg/ml”. On acidic FGF (aFGF) (setting [1]), the “IC50: concentration of ligand at which the rate of heat-induced aggregation of aFGF is 50% of the sample without ligand” value is 2 µg/mL. Also, the “aggregation of aFGF” value on acidic FGF (aFGF) (55° C., 25 minutes, 3-fold excess heparin by weight) was “no aggregation observed after 25 minutes at 55 °C”. Besides, the “cysteine residues of aFGF protected from oxidation” value on aFGF (3X heparin, 20 minutes) is “greater than 95%”. Besides, the “stabilization against copper-catalyzed oxidation” value on aFGF (10-minute incubation, 1/3 weight level of heparin) is “stabilization essentially complete at 1/3 weight levels of heparin”. On aFGF, the “Cu Oxidation (% SH Lost in 10 Mins)” value is under 3%.
On to dextran sulfate, for which, on acidic FGF (aFGF) (40° C.), the “number of ligand molecules per aFGF (molar ratio) required for stabilization” value is on record as “substantially below one”, the “stabilization of aFGF against heat-induced aggregation” value (shortened to “stabilization of aFGF”) is given as “dramatically stabilize aFGF from heat-induced aggregation” and the “Approx. Molar Ratio (ligand to aFGF at 50% inhibition of aggregation)” value is listed as 0.06. Also, the “IC50: concentration of ligand at which the rate of heat-induced aggregation of aFGF is 50% of the sample without ligand” value against acidic FGF (aFGF) (setting [1]) was found to be 3 µg/mL. Moreover, the “Cu Oxidation (% SH Lost in 10 Mins)” value at aFGF is 7%.
For the compound `O=P(O)(O)O[C@H]1[C@H](OP(=O)(O)O)[C@@H](OP(=O)(O)O)[C@H](OP(=O)(O)O)[C@@H](OP(=O)(O)O)[C@H]1OP(=O)(O)O` [Inositol hexaphosphate, inositol hexaphosphate], the “Cu Oxidation (% SH Lost in 10 Mins)” value at aFGF is reported as under 3%; at aFGF (listed as inositol hexaphosphate), “less than 3%”.
As to sulfated β-cyclodextrin, on aFGF, the “Cu Oxidation (% SH Lost in 10 Mins)” value is on record as under 3%.
On to “low molecular weight heparin [Low MW heparin, reference compound]”, for which the “IC50: concentration of ligand at which the rate of heat-induced aggregation of aFGF is 50% of the sample without ligand” value against acidic FGF (aFGF) (setting [1]) was 3 µg/mL. Also, on acidic FGF (aFGF) (40° C.), the “stabilization of aFGF” value is given as “dramatically stabilize aFGF from heat-induced aggregation” and the “Approx. Molar Ratio (ligand to aFGF at 50% inhibition of aggregation)” value was 0.10. Besides, the “Cu Oxidation (% SH Lost in 10 Mins)” value on aFGF is given as under 3%.
Turning to `O=S(=O)(O)OC1C(OS(=O)(=O)O)C(OS(=O)(=O)O)C(OS(=O)(=O)O)C(OS(=O)(=O)O)C1OS(=O)(=O)O` (centres unmarked) [Inositol hexasulfate, inositol hexasulfate], at acidic FGF (aFGF) (40° C.), the “number of ligand molecules per aFGF (molar ratio) required for stabilization” value was “only one or a few ligands per aFGF molecule”, the “stabilization of aFGF” value is on record as “stabilize aFGF against heat-induced aggregation” and the “Approx. Molar Ratio (ligand to aFGF at 50% inhibition of aggregation)” value was 0.6. Further, at acidic FGF (aFGF) (40° C., 100 μg/ml aFGF, PBS pH 7.2, read-out: IC50: concentration of ligand at which the rate of heat-induced aggregation of aFGF is 50% of the sample without ligand (converted)), the IC50 is 4.54 µM. The “Cu Oxidation (% SH Lost in 10 Mins)” value on aFGF is listed as 22%.

These data come from US5348941A, “Stabilizers for fibroblast growth factors” (Merck & Co., Inc., priority 1992, dated 1994).
